The source of these data is patent publication US20240174618A1, “SUBSTITUTED (2-HETEROARYLOXYPHENYL)SULFONATES, SALTS THEREOF AND THEIR USE AS HERBICIDAL AGENTS” (Bayer Aktiengesellschaft, priority 2021, published 2024).

What all share (format): in vivo
One experiment relates to Lolium rigidum (LOLRI). Description: A. Herbicidal pre-emergence efficacy, LOLRI. The method, boiled down:
(§1)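 Pre-emergence soil-surface spray in sandy loam pots, WP/EC in water plus 0.5% additive, 600 L/ha. Visual % damage rating after about 3 weeks in greenhouse vs. untreated; 0% = control-like, 100% = dead plants. Rates up to 1280 g/ha.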

Experiment [1] has as its system Matricaria inodora (MATIN). Description: A. Herbicidal pre-emergence efficacy, MATIN. In short, it runs like this:
as §1

In experiment [2] the test system is Amaranthus retroflexus (AMARE). Nature of the experiment: A. Herbicidal pre-emergence efficacy, AMARE. The method, boiled down:
as §1

In a further experiment the test system is Kochia scoparia (KCHSC). Description: B. Herbicidal post-emergence efficacy, KCHSC. To be noted: for Post-emergence efficacy against KCHSC: 1280 g/ha; for Post-emergence efficacy against KCHSC in %: rated visually after about 3 weeks. The method, boiled down:
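First, seeds were sown in sandy loam and grown 2 to 3 weeks under controlled greenhouse conditions. Next, foliage at the one-leaf stage received the formulated compound in water with 0.5% additive (600 L/ha, 1280 g/ha or less). Finally, damage was rated visually after about 3 weeks against untreated plants.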

In experiment [3] the test system is Digitaria sanguinalis (DIGSA). Nature of the experiment: A. Herbicidal pre-emergence efficacy, DIGSA. Conditions: scored visually after about 3 weeks vs untreated controls. The method, boiled down: as §1
Where [4] appears, read: 320 g/ha, scored visually after about 3 weeks vs untreated controls.
Where [5] appears, read: pre-emergence, dosage 1280 g/ha.

Each structure is given as a SMILES string.

Take `O=S(=O)(CCl)Oc1ccccc1Oc1ncc(Cl)cn1` [Example I-9]: the “Pre-emergence efficacy against LOLRI” value in the experiment on Lolium rigidum (LOLRI) (dosage 1280 g/ha) was determined as 90%. In addition, the entries for the “Pre-emergence efficacy against MATIN” value in experiment [1] (setting [4]) and in experiment [1] (setting [5]) were 90% and 100%, respectively. The “Pre-emergence efficacy against AMARE in %” value in experiment [2] (80 g/ha), in experiment [2] (320 g/ha) and in experiment [2] (1280 g/ha) was 100% in each case. Also, the “Post-emergence efficacy against KCHSC” value in the experiment with Kochia scoparia (KCHSC) came to 90%.
For `Cc1cccc(OS(=O)(=O)CCCCl)c1Oc1ncc(Cl)cn1` [Example I-12], the “Pre-emergence efficacy against LOLRI” value in the experiment on Lolium rigidum (LOLRI) (dosage 1280 g/ha) was 90%. Also, the entries for the “Pre-emergence efficacy against MATIN” value in experiment [1] (setting [4]) and in experiment [1] (setting [5]) were 90% and 100%, respectively. For the same compound, the “Pre-emergence efficacy against AMARE in %” value in experiment [2] (80 g/ha), in experiment [2] (320 g/ha) and in experiment [2] (1280 g/ha) was 100% throughout. Further, the “Post-emergence efficacy against KCHSC” value with Kochia scoparia (KCHSC) came to 90%.
Turning to `O=S(=O)(CCCCl)Oc1cccc(F)c1Oc1ncc(Cl)cn1` [Example I-13], the “Pre-emergence efficacy against DIGSA” value in experiment [3] (1280 g/ha) stood at 100%. Further, the “Pre-emergence efficacy against LOLRI” value in the experiment on Lolium rigidum (LOLRI) (dosage 1280 g/ha) is 90%. Moreover, the “Pre-emergence efficacy against AMARE in %” value in experiment [2] (1280 g/ha) worked out at 100%. Further, in the experiment on Kochia scoparia (KCHSC) (320 g/ha), the “Post-emergence efficacy against KCHSC in %” value amounted to 90%. The “Post-emergence efficacy against KCHSC” value in the experiment with Kochia scoparia (KCHSC) was 100%.
For the compound `CCS(=O)(=O)Oc1ccccc1Oc1ncc(Cl)cn1` [Example I-16], the “Pre-emergence efficacy against DIGSA” value in experiment [3] (320 g/ha) and in experiment [3] (1280 g/ha) was 100% in each case. The “Pre-emergence efficacy against LOLRI” value in the experiment on Lolium rigidum (LOLRI) (dosage 1280 g/ha) stood at 90%. Moreover, the “Pre-emergence efficacy against MATIN” value in experiment [1] (setting [4]) and in experiment [1] (setting [5]) was 100% throughout. The “Pre-emergence efficacy against AMARE in %” value in experiment [2] (80 g/ha), in experiment [2] (320 g/ha) and in experiment [2] (1280 g/ha) was 100% throughout. For the same compound, the “Post-emergence efficacy against KCHSC in %” value with Kochia scoparia (KCHSC) (80 g/ha) is reported as 90%; in the experiment with Kochia scoparia (KCHSC) (320 g/ha), 100%. Besides, in the experiment with Kochia scoparia (KCHSC), the “Post-emergence efficacy against KCHSC” value came to 100%.
For `CCCCCS(=O)(=O)Oc1ccccc1Oc1ncc(Cl)cn1` [Example I-24], the “Pre-emergence efficacy against DIGSA” value in experiment [3] (320 g/ha) and in experiment [3] (1280 g/ha) was 100% in each case. The “Pre-emergence efficacy against LOLRI” value in the experiment with Lolium rigidum (LOLRI) (dosage 1280 g/ha) is given as 100%. In addition, the entries for the “Pre-emergence efficacy against AMARE in %” value in experiment [2] (80 g/ha), in experiment [2] (320 g/ha) and in experiment [2] (1280 g/ha) were 90%, 100% and 100%, respectively. For the same compound, the “Post-emergence efficacy against KCHSC in %” value in the experiment with Kochia scoparia (KCHSC) (80 g/ha) is recorded as 90%; with Kochia scoparia (KCHSC) (320 g/ha), 100%. Besides, in the experiment with Kochia scoparia (KCHSC), the “Post-emergence efficacy against KCHSC” value is on record as 100%.
In the case of `CC(C)CCS(=O)(=O)Oc1ccccc1Oc1ncc(Cl)cn1` [Example I-25], the “Pre-emergence efficacy against DIGSA” value in experiment [3] (80 g/ha) was 90%; in experiment [3] (320 g/ha), 100%; in experiment [3] (1280 g/ha), 100%. In addition, the entries for the “Pre-emergence efficacy against LOLRI” value in the experiment on Lolium rigidum (LOLRI) (dosage 320 g/ha) and with Lolium rigidum (LOLRI) (dosage 1280 g/ha) were 90% and 100%, respectively. The “Pre-emergence efficacy against MATIN” value in experiment [1] (setting [5]) is 100%. For the same compound, the “Pre-emergence efficacy against AMARE in %” value is 90% in experiment [2] (80 g/ha), 100% in experiment [2] (320 g/ha) and 100% in experiment [2] (1280 g/ha). For the same compound, the “Post-emergence efficacy against KCHSC in %” value worked out at 90% in the experiment with Kochia scoparia (KCHSC) (80 g/ha) and 100% in the experiment with Kochia scoparia (KCHSC) (320 g/ha). Further, the “Post-emergence efficacy against KCHSC” value in the experiment on Kochia scoparia (KCHSC) is on record as 100%.
